Measured values from patent US12152035B2, “Androgen receptor binding molecule and use thereof” (Industrial Technology Research Institute, priority 2020, dated 2024).

Tests used:
Assay type in all cases: cell-based
[1] = tested on: CWR22RV1 cells; assay: Cytotoxicity assay (AlamarBlue, 72 hours); conditions: 72 hours treatment, concentration not given
Experimental: (§1) Compound stock solutions of 10 mM were prepared with 100% DMSO and shaken for 10-15 seconds. The compound stock solutions were centrifuged at 12000 rpm (13523 rcf.) for 5 minutes and record the turbidity or precipitation state with a photo snapshot. The compound stock solutions were resuspended by shaking for 10-15 seconds, and serially diluted with 100% DMSO solution to make the compound concentration to 1000 μM, then to 100, 10, and 1 μM, and then 10-fold diluted with medium to 100, 10, 1, 0.1 μM (final 10% DMSO/medium) to complete compound test sample preparation. Compound treatment was performed by adding 10 μL of compound test sample to cells in each well of a 96-well plate (final 1% DMSO/medium).
(§2) Cells (CWR22Rv1 cells or VCaP cells) were cultured in RPMI-1640 medium supplemented with 10% fetal bovine serum, 10,000 U/mL penicillin and 10,000 μg/mL streptomycin. Cells were cultured at 37° C. in a humidified 5% CO2 incubator.
(§3) Cells were seeded in a 96-well plate (1×10^4 cells/well). 10 μL of the above compound test sample was added to each well of the 96-well plate on next day. After 72 hours of compound treatment, 10 μL of AlamaBlue reagent was added to each of 96 wells and incubated for 4 hours. The fluorescence value at Ex/Em=560/590 nm was read with a microplate reader, and the cytotoxicity (%) was calculated.
(§4) According to the above method, the compounds prepared above were subjected to cytotoxicity test with CWR22RV1 cells and VCaP cells.

[2] = tested on: VCaP cells; assay: Cytotoxicity assay (AlamarBlue, 72 hours); conditions: 72 hours treatment, concentration not given
Experimental: as §1, §2, §3, §4

[3] = tested on: full-length androgen receptor; assay: Western blot: degradation of full-length androgen receptor in CWR22RV1 cells; conditions: overnight
Experimental: CWR22Rv1 cells were maintained in RPMI medium supplemented with 10% fetal bovine serum and 1% penicillin-streptomycin at 37° C. in a humidified environment with 5% CO2.
CWR22Rv1 (5×10^5 cells) were seeded in each well of a 6-well plate and incubated overnight. Before compound treatment, the medium in the wells was replaced with a new medium. Cells were treated with different concentrations of compound overnight. Subsequently, cells were harvested by adding cold PBS and scraping cells. Cells were lysed according to general procedures and Western blot assays were performed to assess the ability of compounds to degrade full-length androgen receptor or androgen receptor splice variant 7. The cells or cell lysates were kept on ice at all times.
The following reagents were used in this experiment. Phosphate buffered saline (PBS) (Hyclone, SH30028.02), fetal bovine serum (Hyclone, SH30084.23, Lot AC14563276), penicillin-streptomycin solution (Hyclone, SV30010), 0.5% Trypsin-EDTA (Gibco, 15400-054), CST Lysis Buffer (CST-9803), Halt™ Protease and Phosphatase Inhibitor (ThermoFisher, 78442), Coomassie (Bradford) Protein Assay (Coomassie (Bradford) protein assay) (ThermoFisher, 23200), androgen receptor antibody (Cell Siginaling, CST-5153S), GAPDH antibody (Cell Siginaling, CST-5174S), HRP-goat-anti-rabbit (Jackson Immuno Research, 111-035-003), skim milk, SuperSignal West Pico Maximum Sensitivity substrate (ThermoFisher, 34080).
The compound prepared above was analyzed for its ability to degrade full-length androgen receptor and androgen receptor splice variant 7 in CWR22RV1 cells by Western blotting according to the method shown in item B.3-2 above.

[4] = compound concentration 0.1 (unit not given)
[5] = compound concentration 1 (unit not given)
[6] = compound concentration 10 (unit not given)

| SMILES | Cytotoxicity, CWR22RV1 cells (cell viability %) [1] | Cytotoxicity, VCaP cells (cell viability %) [2] | Degradation ability for full-length androgen receptor (residual rate %) [3, 4] | Degradation ability for full-length androgen receptor (residual rate %) [3, 5] | Degradation ability for full-length androgen receptor (residual rate %) [3, 6] |
| --- | --- | --- | --- | --- | --- |
| O=C1CCC(N2C(=O)c3cccc(N4CCC(N5CCC(C#Cc6ccc(C7CCN(C8=Nn9c(nnc9C(F)(F)F)CC8)CC7)cc6)CC5)CC4)c3C2=O)C(=O)N1 (stereo not drawn) [Compound 44, 2-(2,6-dioxopiperidin-3-yl)-4-(4-((4-(1-(3-(trifluoromethyl)-7,8-dihydro-[1,2,4]triazolo[4,3-b]pyridazin-6-yl)piperidin-4-yl)phenyl)ethynyl)-[1,4′-bipiperidin]-1′-yl)isoindoline-1,3-dione] | +++ (<40% : +++) | +++ (<40% : +++) | − (>80%; −) | − (>80%; −) | ++ (40-60%: ++) |
| Cc1ncsc1-c1ccc(CNC(=O)[C@@H]2C[C@H](O)CN2C(=O)[C@@H](NC(=O)COCCCCCCOc2ccc(C3CCN(C4=Nn5c(nnc5C(F)(F)F)CC4)CC3)cc2)C(C)(C)C)cc1 [Compound 22] | +++ (<40% : +++) | +++ (<40% : +++) | ++ (40-60%: ++) | +++ (<40%: +++) | +++ (<40%: +++) |
| O=C1CCC(N2Cc3c(NC(=O)CCCCCCOc4ccc(C5CCN(C6=Nn7c(nnc7C(F)(F)F)CC6)CC5)cc4)cccc3C2=O)C(=O)N1 (stereo not drawn) [Compound 39, N-(2-(2,6-dioxopiperidin-3-yl)-1-oxoisoindolin-4-yl)-7-(4-(1-(3-(trifluoromethyl)-7,8-dihydro-[1,2,4]triazolo[4,3-b]pyridazin-6-yl)piperidin-4-yl)phenoxy)heptanamide] | +++ (<40% : +++) | +++ (<40% : +++) | − (>80%; −) | + (60-80%: +) | ++ (40-60%: ++) |
| Cc1cc([C@H](C(=O)N2C[C@H](O)C[C@H]2C(=O)N[C@@H](CC(=O)N2CCC(N3CCC(C#Cc4ccc(C5CCN(C6=Nn7c(nnc7C(F)(F)F)CC6)CC5)cc4)CC3)CC2)c2ccc(-c3scnc3C)cc2)C(C)C)on1 [Compound 9, (2S,4R)-4-hydroxy-1-((R)-3-methyl-2-(3-methylisoxazol-5-yl)butanoyl)-N—((S)-1-(4-(4-methylthiazol-5-yl)phenyl)-3-oxo-3-(4-((4-(1-(3-(trifluoromethyl)-7,8-dihydro-[1,2,4]triazolo[4,3-b]pyridazin-6-yl)piperidin-4-yl)phenyl)ethynyl)-[1,4′-bipiperidin]-1′-yl)propyl)pyrrolidine-2-carboxamide] | ++ (40-60% : ++) | +++ (<40% : +++) | + (60-80%: +) | +++ (<40%: +++) | + (60-80%: +) |
| Cc1ncsc1-c1ccc(CNC(=O)[C@@H]2C[C@H](O)CN2C(=O)[C@@H](NC(=O)c2ccc(C(=O)N3CCC(C#Cc4ccc(C5CCN(C6=Nn7c(nnc7C(F)(F)F)CC6)CC5)cc4)CC3)cc2)C(C)(C)C)cc1 [Compound 33, 1-(3,3-dimethyl-2-(4-(4-((4-(1-(3-(trifluoromethyl)-7,8-dihydro-[1,2,4]triazolo[4,3-b]pyridazin-6-yl)piperidin-4-yl)phenyl)ethynyl)piperidine-1-carbonyl)benzamido)butanoyl)-4-hydroxy-N-(4-(4-methylthiazol-5-yl)benzyl)pyrrolidine-2-carboxamide] | − (<80% : −) | +++ (<40% : +++) | – | – | – |
| O=C1CCC(N2Cc3c(C#CCCCCOc4ccc(C5CCN(C6=Nn7c(nnc7C(F)(F)F)CC6)CC5)cc4)cccc3C2=O)C(=O)N1 (stereo not drawn) [Compound 31, 3-(1-oxo-4-(6-(4-(1-(3-(trifluoromethyl)-7,8-dihydro-[1,2,4]triazolo[4,3-b]pyridazin-6-yl)piperidin-4-yl)phenoxy)hex-1-ynyl)isoindolin-2-yl)piperidine-2,6-dione] | + (60-80% : +) | + (60-80% : +) | – | – | – |
| Cc1ncsc1-c1ccc(CNC(=O)[C@@H]2C[C@H](O)CN2C(=O)[C@@H](NC(=O)COCCCCOc2ccc(C3CCN(C4=Nn5c(nnc5C(F)(F)F)CC4)CC3)cc2)C(C)(C)C)c(O)c1 [Compound 35, (2S,4S)-1-((S)-3,3-dimethyl-2-(2-(4-(4-(1-(3-(trifluoromethyl)-7,8-dihydro-[1,2,4]triazolo[4,3-b]pyridazin-6-yl)piperidin-4-yl)phenoxy)butoxy)acetamido)butanoyl)-4-hydroxy-N-(2-hydroxy-4-(4-methylthiazol-5-yl)benzyl)pyrrolidine-2-carboxamide] | +++ (<40% : +++) | +++ (<40% : +++) | – | – | – |
| O=C1CCC(N2Cc3c(NC(=O)COCCCCCCOc4ccc(C5CCN(C6=Nn7c(nnc7C(F)(F)F)CC6)CC5)cc4)cccc3C2=O)C(=O)N1 (stereo not drawn) [Compound 32, N-(2-(2,6-dioxopiperidin-3-yl)-1-oxoisoindolin-4-yl)-2-((6-(4-(1-(3-(trifluoromethyl)-7,8-dihydro-[1,2,4]triazolo[4,3-b]pyridazin-6-yl)piperidin-4-yl)phenoxy)hexyl)oxy)acetamide] | + (60-80% : +) | ++ (40-60% : ++) | – | – | – |
| Cc1ncsc1-c1ccc(CNC(=O)[C@@H]2C[C@H](O)CN2C(=O)[C@@H](NC(=O)CCCN2CCC(C#Cc3ccc(C4CCN(C5=Nn6c(nnc6C(F)(F)F)CC5)CC4)cc3)CC2)C(C)(C)C)cc1 [Compound 13, (2S,4S)-1-((S)-3,3-dimethyl-2-(4-(4-((4-(1-(3-(trifluoromethyl)-7,8-dihydro-[1,2,4]triazolo[4,3-b]pyridazin-6-yl)piperidin-4-yl)phenyl)ethynyl)piperidin-1-yl)butanamido)butanoyl)-4-hydroxy-N-(4-(4-methylthiazol-5-yl)benzyl)pyrrolidine-2-carboxamide] | +++ (<40% : +++) | +++ (<40% : +++) | – | – | – |
